From patent publication US20030105121A1, “Method of preventing lipodystrophy syndrome or reversing a pre-existing syndrome in HIV-infected patients being treated with antiretroviral agents” (priority 1999, published 2003)
Entries after “also recorded” stand apart in the source; their conditions may differ.

Columns and labels:
[1] = human, in vivo
Excerpt: (§1) Because individual examples of treatment histories are of little value in discerning the effectiveness of a given treatment for HIV/AIDS infections, and especially effectiveness in reducing the likelihood of developing a highly variable side effect such as lipodystrophy, due among other things to wide differences in the initial extent of the infection as well as in the response of any given individual, a group of 85 different cases will be evaluated as a group in the following discussion. This number is believed to be a sufficiently large statistical sample to permit a reasonable judgment to be made of the effectiveness of the treatment of this invention.
The medication status of the group at the time of initiation of PI treatment was as follows: Due to historical circumstances, i.e. the predilection in view of the earlier patent of the applicant to treating HIV/AIDS patients with naltrexone, all individuals of the group were already receiving naltrexone at the low dosage level. Based on blood count of […] lymphocytes, individual clinical history and personal patient preference, 60 had already been receiving, or were started on, lamivudine (NA) while 49 of the 65 were also receiving zidovudine (NA) and 4 of the 69 were receiving a combination of lamivudine and stavovudine, bearing in mind that the NA group of antivirals had been available for the longest time. […] Patients already on any of the NA agents, as just specified, were continued on this treatment during the study. The remaining 25 were receiving no medications (other than naltrexone) at the start of the study.

lipodystrophy = test: Case histories (Examples a-g): LDN treatment of pre-existing lipodystrophy; type: in vivo, human; conditions: for serum cholesterol after resuming naltrexone: Example a nine months (from 270), Example d 12 months (from 360)
Excerpt: One will have noted that the above case experience was entirely focused on limiting the risk of patients who were at the time free of lipodystrophy symptoms developing such symptoms during their antiretroviral therapy. This is explained by the fact that due to historical circumstances, i.e. the only recent introduction of antiretroviral therapy, the patients in this group were all being treated with naltrexone as described before being exposed to antiretroviral therapy. […] This was not anticipated and is considered to be a quite surprising finding.

HIV [2] = test: Experience with low dose naltrexone treatment of HIV; type: in vivo, human; conditions: low dose naltrexone alone
Excerpt: I have already disclosed in U.S. Pat. No. 4,888,346, issued Dec. 19, 1989, as a continuation of Ser. No. 06/916,180, filed Oct. 7, 1986, the administration of an essentially pure opiate receptor antagonist at a low dose level to patients suffering from acquired immune deficiency syndrome (or AIDS) in any of its known states, including AIDS-related complex. For this treatment, the amount of the essentially pure opiate receptor antagonist was required to be at a quite low level corresponding in results to those obtained by the administration of Naltrexone at a dosage level of from 1.0 mg. to 10 mg., preferably at a dosage level of 1.0 mg. to about 5 mg., and most preferably up to about 3.0 mg, all per day. At dosage levels above about 10 mg. per day, not only were the desired therapeutic results not obtained but the effect of the treatment appeared to be negative in acerbating the disease.

[3] = Long experience with low dose naltrexone: side effects; type: in vivo, human
Experimental: Long experience has shown the perhaps three percent (3%) of patients receiving the drug at a 4.5 mg. dosage per day may suffer sleep disturbance lasting more than two or three days. Where this has been observed, reduction of the dosage to 3.0 mg. generally returns the sleep pattern to normalcy.

HIV [4] = type: in vivo; conditions: four continuously undetectable patients, last six months of the study
Excerpt: as §1
The medication status of the group at the time of initiation of PI treatment was as follows: Due to historical circumstances, i.e. the predilection in view of the earlier patent of the applicant to treating HIV/AIDS patients with naltrexone, all individuals of the group were already receiving naltrexone at the low dosage level. Based on blood count of […] lymphocytes, individual clinical history and personal patient preference, 60 had already been receiving, or were started on, lamivudine (NA) while 49 of the 65 were also receiving zidovudine (NA) and 4 of the 69 were receiving a combination of lamivudine and stavovudine, bearing in mind that the NA group of antivirals had been available for the longest time. […]

lipodystrophy syndrome = conditions: in vivo; cited from earlier work
[5] = 3.0 mg qhs added to ARV, single cases
[6] = 3.0 mg qhs added to ARV, single cases, listed as LDN

CC(C)(C)NC(=O)[C@@H]1CN(Cc2cccnc2)CCN1C[C@@H](O)C[C@@H](Cc1ccccc1)C(=O)N[C@H]1c2ccccc2C[C@H]1O [indinavir]
persistent side effects [1]: mild nausea

O=C1CC[C@@]2(O)[C@H]3Cc4ccc(O)c5c4[C@@]2(CCN3CC2CC2)[C@H]1O5 [naltrexone, Naltrexone]
serum triglycerides after resuming LDN (lipodystrophy; 3.0 mg qhs added to ARV, 12 months, from 620): 140 | reduction of "buffalo hump" (lipodystrophy; 3 mg qhs added to ARV, nine months): about 50% | serum cholesterol after resuming naltrexone (lipodystrophy; 3 mg qhs added to ARV): 190 | serum cholesterol after resuming naltrexone (lipodystrophy; 3 mg qhs added to ARV, listed as LDN): 220 | other physical signs (subcutaneous tissue, breast size) (lipodystrophy; [5]): returned | waist size outcome (lipodystrophy; [5]): gradually reduced to its former size; also recorded: returned to their previous normal state | other physical signs (subcutaneous tissue, breast size) (lipodystrophy; [6]): about one-half | waist size outcome (lipodystrophy; [6]): partially cleared by about one-half | decrease in waist size (lipodystrophy; 4.5 mg qhs added to ARV, eight weeks): 4 ″ | insulin need (lipodystrophy; 4.5 mg qhs added to ARV, four weeks, from 90 units): 20 units per day | waist size (lipodystrophy; 4.5 mg qhs added to ARV, three months, from 44″): 40 ″ | "buffalo hump" outcome (lipodystrophy; 3.0-4.5 mg qhs added to ARV, single cases): completely disappeared; also recorded: shrank and eventually disappeared | signs of lipodystrophy overall (lipodystrophy; 3.0-4.5 mg qhs added to ARV, single cases, about eight months, listed as LDN): gradually disappeared; also recorded: complete reversal; also recorded: gradual clearing in the residual signs | "buffalo hump" outcome (lipodystrophy; 3.0-4.5 mg qhs added to ARV, single cases, listed as LDN): about one-half; also recorded: largely disappeared | effect on the patient's HIV condition (HIV [2]): stabilizing effect | patients with sleep disturbance lasting more than two or three days ([3]; 4.5 mg. dosage per day): ~3% | side effects or toxicity ([3]; low dose levels): minimal side effects or evidence of toxicity

Cc1c(O)cccc1C(=O)N[C@@H](CSc1ccccc1)[C@H](O)CN1C[C@H]2CCCC[C@H]2C[C@H]1C(=O)NC(C)(C)C [nelfinavir]
change in viral levels after substitution of indinavir (HIV [4]): did not result in any appreciable change in viral levels | side effect associated with the drug [1]: persistent diarrhea

Cc1ccnc2c1NC(=O)c1cccnc1N2C1CC1 [nevirapine]
patients developing body-wide allergic rashes with hives and itching [1]: Seven

Cc1cn([C@H]2C=C[C@@H](CO)O2)c(=O)[nH]c1=O [zerit, stavudine]
rate or risk of lipodystrophy (lipodystrophy syndrome): at least 40%
